Consider 36 molecules from patent US20230021448A1, “COMPOUNDS AND COMPOSITIONS FOR TREATING CONDITIONS ASSOCIATED WITH STING ACTIVITY” (IFM Due, Inc., priority 2019, published 2023).

The assay deals with T1, STING (Homo sapiens, UniProt Q86WV6, G230A/H232R/R293Q/R71H).
T1 construct: host or cells: THP1-Dual KO-IFNAR2 cells
T1 sequence (Q86WV6 whole entry R71H/G230A/H232R/R293Q): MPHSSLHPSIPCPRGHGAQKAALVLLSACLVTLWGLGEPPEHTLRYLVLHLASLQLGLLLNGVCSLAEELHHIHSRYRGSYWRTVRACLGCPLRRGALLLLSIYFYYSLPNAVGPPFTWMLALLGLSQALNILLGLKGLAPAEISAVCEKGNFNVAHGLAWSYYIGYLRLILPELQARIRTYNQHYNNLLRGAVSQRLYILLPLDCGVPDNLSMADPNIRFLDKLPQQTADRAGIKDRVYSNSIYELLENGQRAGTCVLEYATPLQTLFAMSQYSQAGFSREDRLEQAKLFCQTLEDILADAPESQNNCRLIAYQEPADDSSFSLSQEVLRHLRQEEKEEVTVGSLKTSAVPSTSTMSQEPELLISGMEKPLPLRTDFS
In words: STING reporter assay: luciferase reporter activity in THP1-Dual KO-IFNAR2 cells stimulated with 2'3'cGAMP. The note with it: 2′3′cGAMP 15 μM final, 24h, read-out: hSTING: EC50. It counts as cell-based. An outline of the steps:
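THP1-Dual KO-IFNAR2 cells (2×10E6 cells/mL) incubated with compounds at 0.0017-100 μM final plus Lipofectamine-transfected 2′3′cGAMP (15 μM final), 24 h at 37 °C, 5% CO2. Luciferase in supernatant read by QUANTI-Luc luminescence; EC50 derived.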
With `C[C@H](NC(=O)C(=O)Nc1c[nH]c2cc(F)c(F)cc12)c1ccc(C(F)(F)F)cn1` [Compound 298, N-(5,6-difluoro-1H-indol-3-yl)-N′-[(1S)-1-[5-(trifluoromethyl)pyridin-2-yl]ethyl]ethanediamide], the concentration giving a half-maximal response (EC50) fell in the range of 200 to 1000 nM.

Regarding `O=C(NCC(C(F)F)C1CCCCC1)C(=O)Nc1c[nH]c2cc(F)c(F)cc12` (stereo not drawn) [Compound 142], the EC50 was in the range of 200 to 1000 nM.

`O=C(NCCc1ccc(C(F)(F)F)cn1)C(=O)Nc1c[nH]c2cc(F)c(F)cc12` [Compound 269, N-(5,6-difluoro-1H-indol-3-yl)-N′-{2-[5-(trifluoromethyl)pyridin-2-yl]ethyl}ethanediamide]: the EC50 is 200 to 1000 nM.

`O=C(Nc1c[nH]c2cc(F)c(F)cc12)C(=O)N1CCN(c2ccc(CC(F)(F)F)cn2)CC1` [Compound 241]: the EC50 lay in the range of 200 to 1000 nM.

Regarding `C[C@@H](CN(C)c1ccccc1)NC(=O)C(=O)Nc1c[nH]c2cc(F)c(F)cc12` (stereo in doubt) [Compound 319], the EC50 was 200 to 1000 nM.

With `Cc1c(CNC(=O)C(=O)Nc2c[nH]c3cc(F)c(F)cc23)cccc1C(F)(F)F` [Compound 132, N1-(5,6-difluoro-1H-indol-3-yl)-N2-(2-methyl-3-(trifluoromethyl)benzyl)oxalamide], the 50% effective concentration (EC50) lay in the range of 200 to 1000 nM.

Turning to `O=C(NCC(=O)N1CCc2ccc(C(F)(F)F)cc21)C(=O)Nc1c[nH]c2cc(F)c(F)cc12` [Compound 204], the EC50 was 40 to 200 nM.

For the molecule `O=C(NCCC1CCC(F)(F)CC1)C(=O)Nc1c[nH]c2ccccc12` [Compound 179], the EC50 lay in the range of 1000 to 5000 nM.

As for `CC(C)n1cc(-c2cc3c(NC(=O)C(=O)Nc4ccc(C(F)(F)F)cc4)c[nH]c3cc2F)cn1` [Compound 341, N-(6-fluoro-5-(1-isopropyl-1H-pyrazol-4-yl)-1H-indol-3-yl)-N′-(4-(trifluoromethyl)phenyl)oxalamide], the EC50 lay within 200 to 1000 nM.

For `O=C(NCC(c1ccccc1)n1ccnc1)C(=O)Nc1c[nH]c2cc(F)c(F)cc12` (stereo not drawn) [Compound 277, N-(5,6-difluoro-1H-indol-3-yl)-N′-[2-(1H-imidazol-1-yl)-2-phenylethyl] ethanediamide], the EC50 is 5000 to 100000 nM.

On to `O=C(Nc1c[nH]c2cc(F)c(F)cc12)C(=O)NC1CCN(Cc2cccc(C(F)(F)F)c2)C1` (stereo not drawn) [Compound 336], for which the EC50 lay within 200 to 1000 nM.

As to `O=C(NC[C@@H](C(F)F)C1CCCCC1)C(=O)Nc1c[nH]c2cc(F)c(F)cc12` [Compound 135], the EC50 lay within 200 to 1000 nM.

`N#Cc1cc(NC(=O)C(=O)Nc2c[nH]c3cc(F)c(F)cc23)cnc1N1CCCC1` [Compound 231]: the EC50 is 200 to 1000 nM.

As for `CN(CCNC(=O)C(=O)Nc1c[nH]c2cc(F)c(F)cc12)c1ccccn1` [Compound 322], the EC50 fell in the range of 200 to 1000 nM.

On to `Cc1c(NC(=O)C(=O)Nc2c[nH]c3cc(F)c(F)cc23)cccc1C(F)(F)F` [Compound 167, N1-(5,6-difluoro-1H-indol-3-yl)-N2-(2-methyl-3-(trifluoromethyl)phenyl)oxalamide], for which the EC50 is 200 to 1000 nM.

On to `O=C(Nc1c[nH]c2cc(F)c(F)cc12)C(=O)NC(c1ccccc1)C(F)(F)F` (single isomer, unassigned) [Compound 240, N-(5,6-difluoro-1H-indol-3-yl)-N′-(2,2,2-trifluoro-1-phenylethyl)oxalamide], for which the concentration for a half-maximal effect (EC50) fell in the range of 200 to 1000 nM.

For the molecule `CC(NC(=O)C(=O)Nc1c[nH]c2cc(F)c(F)cc12)c1ccc(C(F)(F)F)cc1` (single isomer, unassigned) [Compound 330], the EC50 was in the range of 40 to 200 nM.

Consider `C#Cc1cc(NC(=O)C(=O)Nc2c[nH]c3cc(F)c(F)cc23)ccc1Cl` [Compound 295, N′-(4-chloro-3-ethynylphenyl)-N-(5,6-difluoro-1H-indol-3-yl)ethanediamide], for which the EC50 was 200 to 1000 nM.

For `O=C(Nc1c[nH]c2cc(F)c(F)cc12)C(=O)N[C@H]1CC[C@H](Nc2ccccn2)CC1` [Compound 202, N-(5,6-difluoro-1H-indol-3-yl)-N′-[trans-4-(pyridin-2-ylamino)cyclohexyl]ethanediamide], the EC50 is 5000 to 100000 nM.

As for `Cc1cc(NC(=O)C(=O)Nc2c[nH]c3cc(F)c(-c4cnn(C)c4)cc23)cnc1N1CCC(F)(F)CC1` [Compound 232], the EC50 lay in the range of 1000 to 5000 nM.

Turning to `COc1ccc(CNC(=O)C(=O)Nc2c[nH]c3cc(F)c(F)cc23)cc1Cl` [Compound 161, N1-(3-chloro-4-methoxybenzyl) N2-(5,6-difluoro-1H-indol-3-yl)oxalamide], the half-maximal effective concentration (EC50) lay within 200 to 1000 nM.

As to `O=C(NCC(=O)N1CCc2cccnc21)C(=O)Nc1c[nH]c2cc(F)c(F)cc12` [Compound 203], the half-maximal effective concentration (EC50) fell in the range of 200 to 1000 nM.

As for `O=C(Nc1c[nH]c2cc(F)c(F)cc12)C(=O)NC1CCC2(CCCCO2)CC1` (stereo not drawn) [Compound 282], the EC50 was 200 to 1000 nM.

As for `O=C(NCCN1CCCc2ccccc21)C(=O)Nc1c[nH]c2cc(F)c(F)cc12` [Compound 294, N-(5,6-difluoro-1H-indol-3-yl)-N′-[2-(1,2,3,4-tetrahydroquinolin-1-yl)ethyl]ethanediamide], the EC50 was in the range of 200 to 1000 nM.

With `O=C(NCc1ccc(-c2ccccc2C(F)(F)F)cc1)C(=O)Nc1c[nH]c2cc(F)c(F)cc12` [Compound 108], the EC50 was 200 to 1000 nM.

Regarding `O=C(NC[C@H]1CC12CCCCC2)C(=O)Nc1c[nH]c2cc(F)c(F)cc12` [Compound 177], the EC50 lay in the range of 40 to 200 nM.

Turning to `O=C(NCc1ccc(C(F)(F)F)c(Cl)c1)C(=O)Nc1c[nH]c2ccc(CCO)cc12` [Compound 339, N-(3-chloro-4-(trifluoromethyl)benzyl)-N′-(5-(2-hydroxyethyl)-1H-indol-3-yl)oxalamide], the concentration giving a half-maximal response (EC50) was 200 to 1000 nM.

Consider `CN1CCOc2cc(NC(=O)C(=O)Nc3c[nH]c4cc(F)c(F)cc34)ccc21` [Compound 266, N-(5,6-difluoro-1H-indol-3-yl)-N′-(4-methyl-3,4-dihydro-2H-1,4-benzoxazin-7-yl)ethanediamide], for which the EC50 fell in the range of 200 to 1000 nM.

Take `O=C(NCc1cccc(N2CCCCC2)c1)C(=O)Nc1c[nH]c2cc(F)c(F)cc12` [Compound 162, N1-(5,6-difluoro-1H-indol-3-yl)-N2-(3-(piperidin-1-yl)benzyl) oxalamide]: the EC50 fell in the range of 200 to 1000 nM.

`CC(C)(NC(=O)C(=O)Nc1c[nH]c2cc(F)c(F)cc12)c1ccc(C(F)(F)F)c(Cl)c1` [Compound 137]: the EC50 was in the range of 200 to 1000 nM.

As to `O=C(Nc1ccc2c(c1)oc(=O)n2Cc1ccccc1)C(=O)Nc1c[nH]c2cc(F)c(F)cc12` [Compound 273, N′-(3-benzyl-2-oxo-2,3-dihydro-1,3-benzoxazol-6-yl)-N-(5,6-difluoro-1H-indol-3-yl)ethanediamide], the EC50 lay within 200 to 1000 nM.

Turning to `O=C(Nc1c[nH]c2cc(F)c(F)cc12)C(=O)NC1CCC(Oc2ccccn2)CC1` (stereo not drawn) [Compound 316], the EC50 lay in the range of 200 to 1000 nM.

As for `O=C(Nc1c[nH]c2cc(F)c(F)cc12)C(=O)N[C@@H]1CCC[C@H](Oc2ccc(C(F)(F)F)cc2)C1` (single isomer, unassigned) [Compound 220], the EC50 lay in the range of 200 to 1000 nM.

As to `O=C(NCC1CC12CCCCC2)C(=O)Nc1c[nH]c2cc(F)c(F)cc12` (stereo not drawn) [Compound 189], the concentration for a half-maximal effect (EC50) lay in the range of 200 to 1000 nM.

Turning to `O=C(Nc1ccc(C2CCOCC2)cc1)C(=O)Nc1c[nH]c2cc(F)c(F)cc12` [Compound 105], the EC50 was in the range of 40 to 200 nM.

Consider `Cc1ccc(CNC(=O)C(=O)Nc2c[nH]c3ccc(-c4cnn(CC(F)(F)F)c4)cc23)cc1OC(F)(F)F` [Compound 285], for which the EC50 is 40 to 200 nM.
